Peptide text beside a SMILES is read from it. * marks the point of attachment. Cbz = O=C(OCc1ccccc1)*; CH2F = FC*
Columns and labels:
ASC in HEI-193 cell line = assay: Demethylation of ASC CpG island, ASC expression by RT-PCR; assay type: cell-based, human
Procedure: The cultured cells were treated with (5azadeoxycytindine 0.5, 1 or 2.5 uM) or not treated (0) for 3 days.
Real-time quantitative PCR analyses. RNA isolation from tissue samples was conducted with TRIzol™ reagent according to the manufacturer's instructions (Qiagen, USA) and transcribed into cDNA using superscript VILO™ cDNA synthesis kit (Invitrogen, USA). Taqman™ real-time PCR was carried out using RealPlex MasterCycler™ (eppendorf, USA). […] Taqman probes were purchased from life technologies, USA.

[1] = test system: HEI-193 human schwannoma cell line; settings: HEI193 cells transfected with pAAV-CBA-hASC
Procedure: For all cell types, growth media were supplemented with 10% fetal bovine serum (FBS; Sigma-Aldrich) and 1% penicillin-streptomycin (Cellgro, Herndon, VA) and cells were maintained at 37° C. in a humidified atmosphere of 5% CO2 and 95% air. […] For transfections in 24-well format, 100,000 cells were seeded 24 hours prior to transfection. 1 μl of liofectamine 2000 (Invitrogen, USA) was used for every 500 ng of transfected plasmid in FBS free medium (Optimem, Invitrogen, USA). The DNA/Lipofectamine mix was incubated at room temperature for 30 minutes before spread over the cells and left for 5-6 hours then replaced by fresh medium. The amount of plasmid/lipofectamine was scaled up according to the plate format used.
Cell viability and toxicity assay. The Cell Titer-Glo™ luminescent cell viability assay (Promega, Madison, WI) was used to determine the number of viable cells in culture on the basis of quantitation of ATP levels, an indicator of metabolically active cells. […] The luminescence was measured with a luminometer (Dynex Technologies, Chantilly, VA). Cell death was measured by the LDH assay using CytoTox 96 Non-Radioactive Cytotoxicity Assay kit (Promega) according to the manufacturer's instructions.

HEI-193 cells = assay: In vitro apoptosis staining (TACS 2 TdT-DAB); assay type: cell-based, human; settings: HEI-193 transfected with pAAV-CBA-hASC
Procedure: To determine whether the ASC/TMS1-mediated growth inhibition was the result of caspases induced apoptosis, in vitro apoptosis staining was performed using TACS 2 TdT-DAB In situ Apoptosis Detection kit (Trevigen).
Apoptosis assay. In-vitro DNA fragmentation of apoptotic cells was assessed TACS® 2 TdT-DAB in Situ Apoptosis Detection Kit. In brief, HEI-193 cells on the coated cover glass and transfected with dsAAV-CBA-ASC or dsAAV-CBA-GFP. Fragmented DNA were visualized with diaminobenzidine (DAB) and viewed by light microscope. In-vivo apoptosis study was assessed using the same kit on fresh frozen nerves that were sliced to 15 um thin sections using cryostat and fixed in 3.7% formaldehyde.

08031-9 cells = assay: In vitro apoptotic body staining; assay type: cell-based, mouse; settings: 08031-9 transfected with pAAV-CBA-hASC

Compound	ASC promoter methylation (ASC in HEI-193 cell line)	ASC expression (RT-PCR, normalized to β-actin) (ASC in HEI-193 cell line; 0.5, 1 or 2.5 uM for 3 days, ASC-negative HEI-193)	LDH release cytotoxicity in presence of caspase inhibitor [1]	apoptosis in presence of caspase inhibitor (HEI-193 cells)	apoptosis in presence of caspase inhibitor (HEI-193 cells; listed as ZVADFMK)	apoptosis in presence of caspase inhibitor (HEI-193 cells; listed as pan-caspase inhibitor)	apoptosis in presence of caspase inhibitor (08031-9 cells)	apoptosis in presence of caspase inhibitor (HEI-193 cells; listed as ZDEVDFMK)	apoptosis in presence of caspase inhibitor (HEI-193 cells; listed as caspase-3 inhibitor)
Nc1ncn([C@H]2C[C@H](O)[C@@H](CO)O2)c(=O)n1 [5azadeoxycytidine]	reversible	restores expression							
COC(=O)C[C@H](NC(=O)[C@H](C)NC(=O)[C@@H](NC(=O)OCc1ccccc1)C(C)C)C(=O)CF [ZVAD-FMK] (Cbz-Val-Ala-Asp(OMe)-CH2F)			inhibited	no apoptosis	inhibit	abolished	abolished		
COC(=O)CC[C@H](NC(=O)[C@H](CC(=O)OC)NC(=O)OCc1ccccc1)C(=O)N[C@H](C(=O)N[C@@H](CC(=O)OC)C(=O)CF)C(C)C [ZDEVD-FMK]			inhibited	no apoptosis			abolished	inhibit	abolished
